Test system: human peripheral blood cells (lymphocytes)
Test: γδT lymphocyte proliferation induction, BrdU labeling after 3 days of culture
Assay type: cell-based
Design: key to cytotoxicity: *: cytotoxicity
Settings: 3 days culture; for % stimulation relative to the control: BrdU
Method: The γδT lymphocyte proliferation-inducing activity is tested in the following way: human peripheral blood cells are cultured in the presence of an RPMI-type culture medium supplemented with L-glutamine (2 mM), penicillin/streptomycin (50 μg/50 IU/ml) and foetal calf serum (10%). The C-glycoside derivatives 1 and 2 are added at various concentrations (10 to 0.05 mM), along with phytohemagglutin (PHA at […]), a positive control for total lymphocyte proliferation.

Row | Structure (SMILES) | % stimulation relative to the control (0.05 mM) | % stimulation relative to the control (0.1 mM) | % stimulation relative to the control (0.5 mM) | % stimulation relative to the control (1 mM) | cytotoxicity (5 mM) | % stimulation relative to the control (5 mM) | cytotoxicity (10 mM) | % stimulation relative to the control (10 mM)
1 | CC(=O)C[C@@H]1OC[C@@H](O)[C@H](O)[C@H]1O [Compound 1, 1-(C-β-D-xylopyranosyl)propan-2-one] | 108% | 115% | 84% | 131% | * | 106% | * | 74%
2 | CC(=O)C[C@@H]1O[C@H](CO)[C@@H](O)[C@H](O)[C@H]1O [Compound 2, 1-(C-β-D-glucopyranosyl)propan-2-one] | 64% | 76% | 90% | 123% |  | 227% |  | 224%

From patent publication US20070265210A1, “Administration of C-glycoside compounds for protecting and/or activating gammadeltaT lymphocytes” (L'OREAL, priority 2006, published 2007)
